Measured values reported in patent US8969565B2, “Imidazo[1,2-b]pyridazine-based compounds, compositions comprising them, and methods of their use” (Lexicon Pharmaceuticals, Inc., priority 2012, dated 2015).

What follows are compounds tested against T1, AAK1 (Homo sapiens, UniProt Q2M2I8) (assay: HEK281 cell-based assay (phospho-mu2 Western blot in transfected HEK293F cells)). Details: 3 hours incubation, read-out: CBA IC50.
T1 construct: HA; expressed in transfected cells; host or cells: HEK293F
In short: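 After 3 hours at 37° C. with compound (five 3-fold-spaced concentrations, DMEM+0.5% FBS), transiently transfected HEK293F cells expressing full-length human AAK1 and Flag-tagged mu2 were lysed. mu2 phosphorylation was read by anti-phospho-mu2 immunoblot, normalized against total mu2 by anti-Flag blot.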

T1 sequence (Q2M2I8 1-863 isoform Q2M2I8-2): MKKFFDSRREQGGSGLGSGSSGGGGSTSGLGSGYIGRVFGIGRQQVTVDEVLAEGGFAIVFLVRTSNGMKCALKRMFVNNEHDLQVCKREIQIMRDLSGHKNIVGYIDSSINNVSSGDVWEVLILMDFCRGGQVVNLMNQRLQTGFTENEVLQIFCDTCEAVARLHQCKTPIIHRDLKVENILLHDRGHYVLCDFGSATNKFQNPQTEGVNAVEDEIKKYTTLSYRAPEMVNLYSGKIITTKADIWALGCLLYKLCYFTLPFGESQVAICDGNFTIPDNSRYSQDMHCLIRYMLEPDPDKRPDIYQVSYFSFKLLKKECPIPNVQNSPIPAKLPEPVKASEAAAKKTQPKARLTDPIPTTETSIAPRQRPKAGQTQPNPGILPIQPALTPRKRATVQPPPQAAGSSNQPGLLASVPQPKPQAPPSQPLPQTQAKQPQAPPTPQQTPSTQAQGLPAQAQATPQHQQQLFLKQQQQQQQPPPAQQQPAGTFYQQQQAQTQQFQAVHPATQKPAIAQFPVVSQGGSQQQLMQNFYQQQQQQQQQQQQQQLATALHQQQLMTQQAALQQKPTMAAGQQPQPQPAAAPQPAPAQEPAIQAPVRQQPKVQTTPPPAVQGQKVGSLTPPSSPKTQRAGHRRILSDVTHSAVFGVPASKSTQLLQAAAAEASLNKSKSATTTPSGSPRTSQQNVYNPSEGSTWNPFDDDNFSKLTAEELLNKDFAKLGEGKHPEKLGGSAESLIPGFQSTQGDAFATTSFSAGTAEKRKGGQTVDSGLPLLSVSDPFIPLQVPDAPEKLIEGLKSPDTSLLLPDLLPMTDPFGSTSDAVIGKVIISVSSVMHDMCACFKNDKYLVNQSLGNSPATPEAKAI

| IC50 | SMILES |
| --- | --- |
| ≤ 1000 nM | CCCCNc1ccc2ncc(-c3ccc(C(N)=O)s3)n2n1 [5-(6-(butylamino)imidazo[1,2-b]pyridazin-3-yl)thiophene-2-carboxamide] |
| ≤ 10 nM | CC(C)N(CCNc1ccc2ncc(-c3ccc(C(N)=O)cc3)n2n1)C(=O)OC(C)(C)C [tert-butyl (2-((3-(4-carbamoylphenyl)imidazo[1,2-b]pyridazin-6-yl)amino)ethyl)(isopropyl)carbamate] |
| ≤ 1000 nM | CCCCCNc1ccc2ncc(-c3ccc(CN)cc3)n2n1 [3-(4-(aminomethyl)phenyl)-N-pentylimidazo[1,2-b]pyridazin-6-amine] |
| ≤ 100 nM | CC(C)OC(=O)N(C)CCCNc1ccc2ncc(-c3ccc(CN)cc3)n2n1 [isopropyl (3-((3-(4-(aminomethyl)phenyl)imidazo[1,2-b]pyridazin-6-yl)amino)propyl)(methyl)carbamate] |
| ≤ 1000 nM | NCc1ccc(-c2cnc3ccc(NC4CCCCC4)nn23)cc1 [[3-(4-Aminomethyl-phenyl)-imidazo[1,2-b]pyridazin-6-yl]-cyclohexylamine] |
| ≤ 100 nM | COC(=O)N1CCC[C@H]1CNc1ccc2ncc(-c3ccncc3OC)n2n1 [(S)-methyl 2-(((3-(3-methoxypyridin-4-yl)imidazo[1,2-b]pyridazin-6-yl)amino)methyl)pyrrolidine-1-carboxylate] |
| ≤ 100 nM | CN(CCNc1ccc2ncc(-c3ccc(C#N)cc3)n2n1)C(=O)CC(C)(C)C [N-(2-((3-(4-cyanophenyl)imidazo[1,2-b]pyridazin-6-yl)amino)ethyl)-N,3,3-trimethylbutanamide] |
| ≤ 1000 nM | CCCCNc1ccc2ncc(-c3ccc([C@H]4CCCN4)cc3)n2n1 [(R)—N-butyl-3-(4-(pyrrolidin-2-yl)phenyl)imidazo[1,2-b]pyridazin-6-amine] |
| ≤ 1000 nM | NCc1ccc(-c2cnc3ccc(NCCc4ccc(F)cc4)nn23)cc1 [3-(4-(aminomethyl)phenyl)-N-(4-fluorophenethyl)imidazo[1,2-b]pyridazin-6-amine] |
| ≤ 1000 nM | CC(C)CNc1ccc2ncc(-c3ccc(CN)cc3)n2n1 [3-(4-(aminomethyl)phenyl)-N-isobutylimidazo[1,2-b]pyridazin-6-amine] |
| ≤ 100 nM | CC(C)(C)OC(=O)N1CCN(c2ccc3ncc(Cl)n3n2)CC1 [tert-butyl 4-(3-chloroimidazo[1,2-b]pyridazin-6-yl)piperazine-1-carboxylate] |
| ≤ 10 nM | CC(C)CC(=O)N1CCC[C@H]1CNc1ccc2ncc(-c3ccc(CN)cc3)n2n1 [(S)-1-(2-(((3-(4-(aminomethyl)phenyl)imidazo[1,2-b]pyridazin-6-yl)amino)methyl)pyrrolidin-1-yl)-3-methylbutan-1-one] |
| ≤ 10 nM | COc1cnccc1-c1cnc2ccc(NCCOC(C)C)nn12 [N-(2-isopropoxyethyl)-3-(3-methoxypyridin-4-yl)imidazo[1,2-b]pyridazin-6-amine] |
| ≤ 100 nM | CCCCN(C)c1ccc2ncc(-c3ccc(C(C)=O)s3)n2n1 [1-(5-(6-(butyl(methyl)amino)imidazo[1,2-b]pyridazin-3-yl)thiophen-2-yl)ethanone] |
| ≤ 100 nM | CC(C)OC(=O)N(C)CCNc1ccc2ncc(-c3cn[nH]c3)n2n1 [isopropyl (2-((3-(1H-pyrazol-4-yl)imidazo[1,2-b]pyridazin-6-yl)amino)ethyl)(methyl)carbamate] |
| ≤ 100 nM | COc1cnccc1-c1cnc2ccc(NC[C@@H]3CCCCN3C(=O)OC(C)(C)C)nn12 [(S)-tert-butyl 2-(((3-(3-methoxypyridin-4-yl)imidazo[1,2-b]pyridazin-6-yl)amino)methyl)piperidine-1-carboxylate] |
| ≤ 1000 nM | CC(C)OC(=O)N1CCC[C@H]1CNc1ccc2ncc(C3CC3)n2n1 [(S)-isopropyl 2-(((3-cyclopropylimidazo[1,2-b]pyridazin-6-yl)amino)methyl)pyrrolidine-1-carboxylate] |
| ≤ 100 nM | COc1ccc(CCNc2ccc3ncc(-c4ccc(CN)cc4)n3n2)cc1 [3-(4-(aminomethyl)phenyl)-N-(4-methoxyphenethyl)imidazo[1,2-b]pyridazin-6-amine] |
| ≤ 100 nM | CC(C)OCCNc1ccc2ncc(-c3ccc(C4CCCN4)cc3)n2n1 (stereo not drawn) [N-(2-isopropoxyethyl)-3-(4-(pyrrolidin-2-yl)phenyl)imidazo[1,2-b]pyridazin-6-amine] |
| ≤ 100 nM | COc1cccc(-c2cnc3ccc(NCCN(C)C(=O)OC(C)(C)C)nn23)c1 [tert-butyl (2-((3-(3-methoxyphenyl)imidazo[1,2-b]pyridazin-6-yl)amino)ethyl)(methyl)carbamate] |
| ≤ 100 nM | NCc1ccc(-c2cnc3ccc(NCCc4cccc(F)c4)nn23)cc1 [3-(4-(aminomethyl)phenyl)-N-(3-fluorophenethyl)imidazo[1,2-b]pyridazin-6-amine] |

| IC50 | SMILES |
| --- | --- |
| ≤ 1000 nM | CCCCNc1ccc2ncc(-c3ccc(CNCCN)cc3)n2n1 [N1-(4-(6-(butylamino)imidazo[1,2-b]pyridazin-3-yl)benzyl)ethane-1,2-diamine] |
| ≤ 1000 nM | CCCNc1ccc2ncc(-c3ccc(CN)cc3)n2n1 [3-(4-(aminomethyl)phenyl)-N-propylimidazo[1,2-b]pyridazin-6-amine] |
| ≤ 100 nM | CC(C)(C)COC(=O)N1CCC[C@H]1CNc1ccc2ncc(Br)n2n1 [(S)-neopentyl 2-(((3-bromoimidazo[1,2-b]pyridazin-6-yl)amino)methyl)pyrrolidine-1-carboxylate] |
| ≤ 100 nM | COc1cc(F)c(F)cc1-c1cnc2ccc(NCCN(C(=O)OC(C)C)C(C)C)nn12 [isopropyl (2-((3-(4,5-difluoro-2-methoxyphenyl)imidazo[1,2-b]pyridazin-6-yl)amino)ethyl)(isopropyl)carbamate] |
| ≤ 1000 nM | CN(CCCNc1ccc2ncc(-c3ccc(CN)cc3)n2n1)C(=O)C(C)(C)C [N-(3-((3-(4-(aminomethyl)phenyl)imidazo[1,2-b]pyridazin-6-yl)amino)propyl)-N-methylpivalamide] |
| ≤ 100 nM | CC(C)OC(=O)N1CCN(c2ccc3ncc(-c4cccc5c4OCO5)n3n2)CC1 [isopropyl 4-(3-(benzo[d][1,3]dioxo1-4-yl)imidazo[1,2-b]pyridazin-6-yl)piperazine-1-carboxylate] |
| ≤ 1000 nM | COc1ncccc1-c1cnc2ccc(NCC3CCOC3)nn12 (stereo not drawn) [3-(2-methoxypyridin-3-yl)-N-((tetrahydrofuran-3-yl)methyl)imidazo[1,2-b]pyridazin-6-amine] |
| ≤ 1000 nM | CCCCNc1ccc2ncc(C(=O)Nc3ccc(CN)cc3)n2n1 [N-(4-(aminomethyl)phenyl)-6-(butylamino)imidazo[1,2-b]pyridazine-3-carboxamide] |
| ≤ 10 nM | CCOc1ccccc1CCNc1ccc2ncc(-c3ccc(C(=O)NC)cc3)n2n1 [4-(6-((2-ethoxyphenethyl)amino)imidazo[1,2-b]pyridazin-3-yl)-N-methylbenzamide] |
| ≤ 100 nM | CCOC(=O)N1CCC[C@H]1CNc1ccc2ncc(-c3ccccc3OC)n2n1 [(S)-ethyl 2-(((3-(2-methoxyphenyl)imidazo[1,2-b]pyridazin-6-yl)amino)methyl)pyrrolidine-1-carboxylate] |
| ≤ 10 nM | CCOC(=O)N1CCC[C@H]1CNc1ccc2ncc(-c3ccc(CN)cc3)n2n1 [(S)-ethyl 2-(((3-(4-(aminomethyl)phenyl)imidazo[1,2-b]pyridazin-6-yl)amino)methyl)pyrrolidine-1-carboxylate] |
| ≤ 100 nM | FCCCNc1ccc2ncc(-c3ccc(C4CCCN4)cc3)n2n1 (stereo not drawn) [N-(3-fluoropropyl)-3-(4-(pyrrolidin-2-yl)phenyl)imidazo[1,2-b]pyridazin-6-amine] |
| ≤ 100 nM | CCCCNc1ccc2ncc(-c3ccc(C(=O)NCCNC)c(F)c3)n2n1 [4-(6-(butylamino)imidazo[1,2-b]pyridazin-3-yl)-2-fluoro-N-(2-(methylamino)ethyl)benzamide] |
| ≤ 1000 nM | CC(C)(C)CCNc1ccc2ncc(-c3ccc(C4CCCN4)cc3)n2n1 (stereo not drawn) [N-(3,3-dimethylbutyl)-3-(4-(pyrrolidin-2-yl)phenyl)imidazo[1,2-b]pyridazin-6-amine] |
| ≤ 100 nM | CCCCNc1ccc2ncc(-c3ccc([C@@H]4CCCN4)cc3)n2n1 [(S)-N-butyl-3-(4-(pyrrolidin-2-yl)phenyl)imidazo[1,2-b]pyridazin-6-amine] |
| ≤ 1000 nM | CCCCNc1ccc2ncc(-c3ccc(CNCCOC)cc3)n2n1 [N-butyl-3-(4-(((2-methoxyethyl)amino)methyl)phenyl)imidazo[1,2-b]pyridazin-6-amine] |
| ≤ 100 nM | Fc1cnccc1-c1cnc2ccc(NCCOC3CCCC3)nn12 [N-(2-(cyclopentyloxy)ethyl)-3-(3-fluoropyridin-4-yl)imidazo[1,2-b]pyridazin-6-amine] |
| ≤ 1000 nM | CC(C)(C)CCNc1ccc2ncc(-c3ccc(CNCCN)cc3)n2n1 [N1-(4-(6-((3,3-dimethylbutyl)amino)imidazo[1,2-b]pyridazin-3-yl)benzyl)ethane-1,2-diamine] |
| ≤ 100 nM | CCOC(=O)N1CCC[C@H]1CNc1ccc2ncc(Br)n2n1 [(S)-ethyl 2-(((3-bromoimidazo[1,2-b]pyridazin-6-yl)amino)methyl)pyrrolidine-1-carboxylate] |
| ≤ 1000 nM | CC(=O)c1ccc(-c2cnc3ccc(NCC(C)C)nn23)s1 [1-(5-(6-(isobutylamino)imidazo[1,2-b]pyridazin-3-yl)thiophen-2-yl)ethanone] |

| SMILES | IC50 |
| --- | --- |
| CC(C)(C)OCCCNc1ccc2ncc(-c3ccc(C(=O)NCCN)cc3)n2n1 [N-(2-aminoethyl)-4-(6-((3-(tert-butoxy)propyl)amino)imidazo[1,2-b]pyridazin-3-yl)benzamide] | ≤ 1000 nM |
| CC(C)(C)OCCNc1ccc2ncc(-c3ccc(CN)cc3)n2n1 [3-(4-(aminomethyl)phenyl)-N-(2-(tert-butoxy)ethyl)imidazo[1,2-b]pyridazin-6-amine] | ≤ 100 nM |
| Cc1nc(C)c(-c2cnc3ccc(NCCOCC(C)C)nn23)s1 [3-(2,4-dimethylthiazol-5-yl)-N-(2-isobutoxyethyl)imidazo[1,2-b]pyridazin-6-amine] | ≤ 1000 nM |
| CC(C)COCCNc1ccc2ncc(-c3ccncc3)n2n1 [N-(2-isobutoxyethyl)-3-(pyridin-4-yl)imidazo[1,2-b]pyridazin-6-amine] | ≤ 1000 nM |
